Test system: primary CLL samples (CD19+ and CD5+ cells)
Test: High-throughput dynamic BH3 profiling (HT-DBP): drug-induced apoptotic priming (delta priming), cytochrome c release after BH3 peptide
Assay type: cell-based, human
Settings: for drug-induced apoptotic priming: across CLL subtypes, 65 primary CLL samples, 20 hours drug
Procedure: By “delta priming” is meant the difference in priming of a cell for apoptosis measured in the presence of an agent for treating chronic lymphocytic leukemia relative to priming of the cell in the presence of an inert carrier. In embodiments, the inert carrier is DMSO.
Dynamic BH3 Profiling Dynamic BH3 profiling (DBP) is a drug screening assay that measures the relative priming of cells in a biological sample for cell death by apoptosis in the presence of a specific compound and/or a pro-apoptotic peptide. By “Dynamic BH3 profiling” is meant measuring drug-induced changes in mitochondrial apoptotic priming. Mitochondrial apoptotic priming is a measure of how close to the apoptotic threshold a cell is. A highly primed cell has relatively less anti-apoptotic binding site availability and is closer to the apoptotic threshold than a poorly primed cell, which has more anti-apoptotic availability to buffer an apoptotic assault and is further from the apoptotic threshold. BH3 peptides derived from the BH3 domain of pro-apoptotic BH3-only proteins provoke a response from viable mitochondria. Cytochrome c released from the mitochondria after a short incubation with BH3 peptide is used as a surrogate for priming. In general, the more sensitive a mitochondrion is to a BH3 peptide, the more primed it is. A drug treatment that enhances priming will cause mitochondria to undergo MOMP more easily when incubated with a fixed concentration of a promiscuously binding BH3 peptide, such as BIM BH3 peptide, compared to control-treated cells. See, for example, Potter, D. S. & Letai, A. To prime, or not to prime: that is the question. Cold Spring Harb. Symp. Quant. Biol. 81, 131-140 (2016); Montero, J. et al. Drug-induced death signaling strategy rapidly predicts cancer response to chemotherapy. Cell 160, 977-989 (2015); Daniels, V. W. et al. Metabolic perturbations sensitize triple-negative breast cancers to apoptosis induced by BH3 mimetics. Sci.
Dynamic BH3 profiling and peptides for use therein are described, for example, in Certo, et al., “Mitochondria primed by death signals determine cellular addiction to antiapoptotic BCL-2 family members,” Cancer Cell, 9:351-365 (2006); and in Foight, et al. “Designed BH3 Peptides with High Affinity and Specificity for Targeting Mcl-1 in Cells,” ACS Chemical Biology, 9:1962-1968 (2014), the disclosures of which are incorporated herein by reference in their entireties for all purposes. The DBP assay enables one to compare the response of a patient tumor sample to a specific drug relative to other drugs and relative to an inert control (e.g., DMSO).
To address the challenge of selecting a proper treatment for a chronic lymphocytic leukemia, experiments were undertaken to optimize high-throughput dynamic BH3 profiling (HT-DBP) for evaluation of the drug sensitivities of CLL samples (FIGS. 1, 13, 5A, 5B, 6A, 6B, and 7A-7C).

[1] = peptide BAD 0.3 uM, feature CARD11
[2] = peptide BAD 0.3 uM, feature MYD88
[3] = peptide BIM 0.01 uM, feature BIRC3
[4] = peptide BIM 0.01 uM, feature loss_9p21.3
[5] = peptide BIM 0.01 uM, feature loss_17q11.2
[6] = peptide MS1 2.5 uM, feature BIRC3
[7] = peptide MS1 2.5 uM, feature loss_9p21.3
[8] = peptide MS1 2.5 uM, feature loss_17q11.2
[9] = peptide PUMA 1 uM, feature CARD11
[10] = peptide MS1 2.5 uM, feature CNOT3
[11] = peptide PUMA 1 uM, feature loss_14q32.12
[12] = peptide BIM 0.01 uM, feature EC-m2
[13] = peptide BIM 0.01 uM, feature NOTCH1
[14] = peptide PUMA 1 uM, feature loss_17p13.1
[15] = peptide PUMA 1 uM, feature loss_1q21.3
[16] = peptide PUMA 1 uM, feature loss_3p21.31
[17] = peptide PUMA 1 uM, feature loss_7p22.2
[18] = peptide BAD 0.3 uM, feature M-CLL
[19] = peptide BAD 0.3 uM, feature U-CLL
[20] = peptide BAD 0.3 uM, feature priortrt_Post
[21] = peptide MS1 2.5 uM, feature EC-m4
[22] = peptide PUMA 1 uM, feature BIRC3
[23] = peptide PUMA 1 uM, feature loss_9p21.3
[24] = peptide PUMA 1 uM, feature loss_17q11.2

`Nc1ncn([C@@H]2O[C@H](CO)[C@@H](O)[C@H]2O)c(=O)n1` [Azacitidine] was tested, and the direction (Feature CARD11) was “Sensitive”, the direction [1] was “Sensitive” and the direction [2] was “Sensitive”. The direction (peptide BAD 0.3 uM, feature loss_19p13.11) was “Sensitive”, the direction [3] was “Resistant” and the direction (peptide BIM 0.01 uM, feature FBXW7) was “Resistant”. The direction (peptide BIM 0.01 uM, feature ITIH2) was “Resistant”, the direction (peptide BIM 0.01 uM, feature gain_19p13.3) was “Resistant” and the direction [4] was “Resistant”. For the same molecule, the direction [5] was “Resistant”, the direction [6] was “Sensitive” and the direction (peptide MS1 2.5 uM, feature ITIH2) was “Sensitive”. The direction [7] was “Sensitive”, the direction [8] was “Sensitive” and the direction (peptide MS1 2.5 uM, feature loss_19p13.11) was “Sensitive”. For the same molecule, the direction [9] was “Sensitive”.
With `Cn1c(CCCC(=O)O)nc2cc(N(CCCl)CCCl)ccc21` [Bendamustine] the direction (Feature loss_5p15.33) was “Sensitive”, the direction (Feature loss_7p22.2) was “Sensitive” and the direction (Feature loss_12p13.31a) was “Sensitive”. The direction (Feature loss_14q32.12) was “Sensitive”, the direction (peptide BAD 0.3 uM, feature EC-i) was “Sensitive” and the direction (peptide BAD 0.3 uM, feature loss_1q42.13) was “Sensitive”. For the same molecule, the direction (peptide BAD 0.3 uM, feature loss_5p15.33) was “Sensitive”, the direction (peptide BAD 0.3 uM, feature loss_7p22.2) was “Sensitive” and the direction (peptide BAD 0.3 uM, feature loss_12p13.31a) was “Sensitive”. For the same molecule, the direction (peptide BAD 0.3 uM, feature loss_14q32.12) was “Sensitive”, the direction (peptide BAD 0.3 uM, feature loss_16p11.2) was “Sensitive” and the direction [6] was “Sensitive”. The direction [10] was “Sensitive”, the direction [7] was “Sensitive” and the direction [8] was “Sensitive”. The direction (peptide PUMA 1 uM, feature gain_7q22.1) was “Sensitive” and the direction [11] was “Sensitive”.
For `C[C@H](Nc1ncnc2[nH]cnc12)c1cc2cccc(Cl)c2c(=O)n1-c1ccccc1` [Duvelisib, duvelisib], the drug-induced apoptotic priming was “high priming”, the direction (peptide BAD 0.3 uM, feature loss_17p13.1) was “Sensitive” and the direction (peptide BAD 0.3 uM, feature loss_17q23.1) was “Sensitive”. For the same molecule, the direction [12] was “Sensitive”, the direction [13] was “Resistant” and the direction (peptide MS1 2.5 uM, feature loss_17p13.1) was “Sensitive”. The direction (peptide MS1 2.5 uM, feature loss_17q23.1) was “Sensitive”, the direction (peptide PUMA 1 uM, feature EC-m2) was “Sensitive” and the direction [14] was “Sensitive”. For the same molecule, the direction (peptide PUMA 1 uM, feature loss_17q23.1) was “Sensitive”.
For `O=C(CCCCCCNC(=O)c1cnc(N(c2ccccc2)c2ccccc2)nc1)NO` [Ricolinostat], the direction [1] was “Sensitive”, the direction (peptide BIM 0.01 uM, feature i-CLL) was “Resistant” and the direction (peptide BIM 0.01 uM, feature loss_15q15.1b) was “Resistant”. The direction (peptide BIM 0.01 uM, feature loss_20p11.22) was “Resistant”, the direction [10] was “Sensitive” and the direction (peptide MS1 2.5 uM, feature loss_10q24.32) was “Resistant”. The direction (peptide MS1 2.5 uM, feature m-CLL) was “Sensitive”, the direction [9] was “Sensitive” and the direction (peptide PUMA 1 uM, feature gain_16p11.2) was “Resistant”. The direction (peptide PUMA 1 uM, feature i-CLL) was “Resistant”, the direction [15] was “Resistant” and the direction (peptide PUMA 1 uM, feature loss_2q31.1) was “Resistant”. For the same molecule, the direction [16] was “Resistant”, the direction (peptide PUMA 1 uM, feature loss_5p15.33) was “Resistant” and the direction [17] was “Resistant”. The direction (peptide PUMA 1 uM, feature loss_10p12.2) was “Resistant”, the direction (peptide PUMA 1 uM, feature loss_12p13.31a) was “Resistant” and the direction [11] was “Resistant”. For the same molecule, the direction (peptide PUMA 1 uM, feature loss_15q15.1b) was “Resistant”, the direction (peptide PUMA 1 uM, feature loss_16q22.1) was “Resistant” and the direction (peptide PUMA 1 uM, feature loss_17p13.3) was “Resistant”. The direction (peptide PUMA 1 uM, feature loss_20p11.22) was “Resistant” and the direction (peptide PUMA 1 uM, feature m-CLL) was “Sensitive”.
For `O=C(/C=C\n1cnc(-c2cc(C(F)(F)F)cc(C(F)(F)F)c2)n1)NNc1cnccn1` [Selinexor], the direction (Feature MYD88) was “Sensitive”, the direction (peptide BAD 0.3 uM, feature ITIH2) was “Sensitive” and the direction (peptide BIM 0.01 uM, feature MYD88) was “Sensitive”. The direction (peptide PUMA 1 uM, feature loss_7q36.1) was “Sensitive” and the direction (peptide PUMA 1 uM, feature loss_8p) was “Sensitive”.
In the case of `COc1ccc(C2=N[C@@H](c3ccc(Cl)cc3)[C@@H](c3ccc(Cl)cc3)N2C(=O)N2CCNC(=O)C2)c(OC(C)C)c1` [Nutlin-3], the “drug-induced apoptotic priming by expression cluster” value (EC-m1) is reported as “most sensitive”, the direction (Feature FBXW7) is reported as “Resistant” and the direction (Feature priortrt_Post) is reported as “Resistant”. For the same molecule, the drug-induced apoptotic priming was “high priming”, the direction [18] was “Sensitive” and the dprim_pearson_corr [18] was 0.4093. For the same molecule, the direction [19] was “Resistant”, the dprim_pearson_corr [19] was −0.4093 and the direction [20] was “Resistant”. For the same molecule, the dprim_pearson_corr [20] was −0.4166, the direction [21] was “Sensitive” and the dprim_pearson_corr [21] was 0.3373. The direction (peptide PUMA 1 uM, feature EC-m4) was “Sensitive”, the direction (peptide PUMA 1 uM, feature FBXW7) was “Resistant” and the direction [14] was “Resistant”. For the same molecule, the direction (peptide PUMA 1 uM, feature priortrt_Post) was “Resistant”.
With `C=CC(=O)Nc1cc(Nc2nccc(-c3cn(C)c4ccccc34)n2)c(OC)cc1N(C)CCN(C)C` [Osimertinib] the direction (peptide BAD 0.3 uM, feature IGLV321_R110) was “Resistant”, the direction [2] was “Resistant” and the direction (peptide BAD 0.3 uM, feature NOTCH1) was “Resistant”. The direction (peptide BAD 0.3 uM, feature RPS15) was “Resistant”, the direction (peptide BAD 0.3 uM, feature loss_6q) was “Resistant” and the direction [3] was “Sensitive”. The direction (peptide BIM 0.01 uM, feature EC-u2) was “Sensitive”, the direction (peptide BIM 0.01 uM, feature IGLV321_R110) was “Resistant” and the direction [13] was “Resistant”. The direction (peptide BIM 0.01 uM, feature RPS15) was “Resistant”, the direction (peptide BIM 0.01 uM, feature loss_6q) was “Resistant” and the direction [4] was “Sensitive”. For the same molecule, the direction [5] was “Sensitive”, the direction (peptide MS1 2.5 uM, feature EC-i) was “Resistant” and the direction (peptide MS1 2.5 uM, feature IGLV321_R110) was “Resistant”. The direction (peptide MS1 2.5 uM, feature NOTCH1) was “Resistant”, the direction (peptide MS1 2.5 uM, feature RPS15) was “Resistant” and the direction (peptide MS1 2.5 uM, feature loss_6q) was “Resistant”. The direction [22] was “Sensitive”, the direction (peptide PUMA 1 uM, feature MYD88) was “Resistant” and the direction [16] was “Resistant”. The direction [23] was “Sensitive” and the direction [24] was “Sensitive”.
With `CCC[C@H](N[C@H]1CCc2cc(F)cc(F)c2C1)C(=O)Nc1cn(C(C)(C)CNCC(C)(C)C)cn1` [Nirogacestat] the direction (peptide BAD 0.3 uM, feature loss_1p36.11) was “Resistant”, the direction (peptide BAD 0.3 uM, feature loss_3p13) was “Resistant” and the direction (peptide BAD 0.3 uM, feature loss_18q21.2) was “Resistant”. For the same molecule, the direction [12] was “Sensitive”, the direction (peptide BIM 0.01 uM, feature tri_12) was “Sensitive” and the direction [22] was “Sensitive”. The direction [15] was “Sensitive”, the direction [17] was “Sensitive” and the direction [23] was “Sensitive”. The direction [24] was “Sensitive”.

— US20250255889A1, “METHODS FOR TREATMENT SELECTION FOR CHRONIC LYMPHOCYTIC LEUKEMIA (CLL)” (The Broad Institute, Inc., priority 2022, published 2025)
